Source: PubChem BioAssay (NCI)
Several values for one entry are separate records, joined by “and”; a condition that tells them apart may be missing. Equal entries are not always repeated.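 48-hour exposure; five concentrations; linearly interpolated endpoints. GI50 = concentration required for 50% inhibition of growth. TGI denotes the concentration required for complete inhibition of growth.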

Legend:
Test in all cases: NCI anticancer screen, dose series, 48 h
SF-268 CNS = test system: SF-268 CNS
M14 melanoma = test system: M14 melanoma
SN12C renal = test system: SN12C renal
TK-10 renal = test system: TK-10 renal
HCT-116 colon = test system: HCT-116 colon
A549 NSCLC = test system: A549 NSCLC
SR leukemia = test system: SR leukemia
ACHN renal = test system: ACHN renal
MCF7 breast = test system: MCF7 breast
SF-295 CNS = test system: SF-295 CNS

## C[C@]12CCC(=O)C(O)=C1CC[C@@H]1[C@@H]2CC[C@]2(C)C(=O)CC[C@@H]12
SF-268 CNS
  TGI: > 100 µM
M14 melanoma
  TGI: > 100 µM
SN12C renal
  TGI: > 100 µM
TK-10 renal
  TGI: > 100 µM
HCT-116 colon
  TGI: > 100 µM
A549 NSCLC
  TGI: > 100 µM
SR leukemia
  TGI: > 100 µM
ACHN renal
  TGI: > 100 µM
MCF7 breast
  TGI: > 100 µM
SF-295 CNS
  TGI: > 100 µM

## Cc1ccc2c(=O)c3cccc(CC(=O)O)c3oc2c1C
SF-268 CNS
  GI50: > 100 µM
  TGI: > 100 µM
M14 melanoma
  GI50: > 100 µM
  TGI: > 100 µM
SN12C renal
  GI50: > 100 µM
  TGI: > 100 µM
TK-10 renal
  GI50: > 100 µM
  TGI: > 100 µM
HCT-116 colon
  GI50: > 100 µM
  TGI: > 100 µM
A549 NSCLC
  GI50: > 100 µM
  TGI: > 100 µM
SR leukemia
  GI50: > 100 µM
  TGI: > 100 µM
ACHN renal
  GI50: > 100 µM
  TGI: > 100 µM
MCF7 breast
  GI50: > 100 µM
  TGI: > 100 µM
SF-295 CNS
  GI50: > 100 µM
  TGI: > 100 µM

## O=C1c2ccccc2-c2c1c1ccccc1c(=O)n2CCCN1CCOCC1
SF-268 CNS
  GI50: 6.52 µM
  TGI: 26.1 µM
M14 melanoma
  GI50: 99.2 µM
  TGI: > 100 µM
SN12C renal
  GI50: 21.3 µM
  TGI: > 100 µM
TK-10 renal
  GI50: 12.1 µM
  TGI: 31.9 µM
HCT-116 colon
  GI50: 13.6 µM
  TGI: 31.8 µM
A549 NSCLC
  GI50: 26.2 µM
  TGI: > 100 µM
SR leukemia
  GI50: 12.2 µM
  TGI: > 100 µM
ACHN renal
  GI50: 10.7 µM
  TGI: 59.5 µM
MCF7 breast
  GI50: 9.31 µM
  TGI: > 100 µM
SF-295 CNS
  GI50: 6.72 µM
  TGI: 20.6 µM

## COC(=O)/C(=C\c1c(C)[nH]c2ccccc12)S(=O)(=O)c1ccccc1
SF-268 CNS
  GI50: 3.33 µM
  TGI: 11.1 µM
M14 melanoma
  GI50: 4.4 µM
  TGI: 20 µM
SN12C renal
  GI50: 2.55 µM
  TGI: 10.3 µM
TK-10 renal
  GI50: 8.07 µM
  TGI: 96.6 µM
HCT-116 colon
  GI50: 3.8 µM
  TGI: 17.3 µM
A549 NSCLC
  GI50: 4.87 µM
  TGI: 64 µM
SR leukemia
  GI50: 1.05 µM
  TGI: > 100 µM
ACHN renal
  GI50: 5.52 µM
  TGI: 18.5 µM
MCF7 breast
  GI50: 2.81 µM
  TGI: 12.5 µM
SF-295 CNS
  GI50: 3.07 µM
  TGI: 15.7 µM

## COc1ccc(/C=C\c2cc(OC)c(OC)c(OC)c2)cc1OCC(=O)Nc1nc2ccc(C(F)(F)F)cc2s1
SF-268 CNS
  GI50: 3.85 µM
  TGI: 48.6 µM
M14 melanoma
  GI50: 3.59 µM
  TGI: > 100 µM
SN12C renal
  GI50: 4.43 µM
  TGI: > 100 µM
TK-10 renal
  GI50: 7.03 µM
  TGI: > 100 µM
HCT-116 colon
  GI50: 3.29 µM
  TGI: > 100 µM
A549 NSCLC
  GI50: 4.46 µM
  TGI: > 100 µM
SR leukemia
  GI50: 3.35 µM
  TGI: > 100 µM
ACHN renal
  GI50: 4.83 µM
  TGI: > 100 µM
MCF7 breast
  GI50: 3.16 µM
  TGI: 65.1 µM
SF-295 CNS
  GI50: 3.36 µM
  TGI: > 100 µM

## CNC(=O)c1cccc(-c2ccc3c(N4CCOC[C@@H]4C)nc(N4CCOC[C@@H]4C)nc3n2)c1
SF-268 CNS
  GI50: 0.0653 µM and 0.209 µM and 0.212 µM
  TGI: 10.5 µM and > 6.59 µM and > 100 µM
M14 melanoma
  GI50: 0.047 µM and 0.177 µM and 0.133 µM
  TGI: 44.5 µM and > 6.82 µM and 14.9 µM
SN12C renal
  GI50: 0.132 µM and 0.121 µM and 0.129 µM
  TGI: > 100 µM
TK-10 renal
  GI50: 0.0616 µM and 0.146 µM and 0.113 µM
  TGI: 2.25 µM and 1.63 µM and 1.48 µM
HCT-116 colon
  GI50: 0.303 µM and 0.451 µM and 0.407 µM
  TGI: > 100 µM
A549 NSCLC
  GI50: 0.124 µM and 0.242 µM and 0.142 µM
  TGI: > 100 µM and > 10 µM and 11.5 µM
SR leukemia
  GI50: 0.249 µM and 0.133 µM and 0.104 µM
  TGI: > 100 µM
ACHN renal
  GI50: 0.095 µM and 0.115 µM and 0.119 µM
  TGI: > 100 µM
MCF7 breast
  GI50: 0.0295 µM and 0.098 µM and 0.0368 µM
  TGI: 5.51 µM and > 3.46 µM and 9.7 µM
SF-295 CNS
  GI50: 0.0494 µM and 0.123 µM and 0.0336 µM
  TGI: 0.392 µM and 0.795 µM and 0.22 µM

## COC(=O)Nc1nc2ccccc2c(=O)[nH]1
SF-268 CNS
  TGI: > 100 µM
M14 melanoma
  TGI: > 100 µM
SN12C renal
  TGI: > 100 µM
TK-10 renal
  TGI: > 100 µM
HCT-116 colon
  TGI: > 100 µM
A549 NSCLC
  TGI: > 100 µM
SR leukemia
  TGI: > 100 µM
ACHN renal
  TGI: > 100 µM
MCF7 breast
  TGI: > 100 µM
SF-295 CNS
  TGI: > 100 µM

## C[C@]12CC[C@@H]3c4ccc(O)cc4CC[C@H]3[C@@H]1CC[C@@H]2NS(=O)(=O)Cc1ccc(Cl)cc1
SF-268 CNS
  GI50: 3.16 µM
  TGI: 12.5 µM
M14 melanoma
  GI50: 2.49 µM
  TGI: 6.25 µM
SN12C renal
  GI50: 1.7 µM
  TGI: 3.36 µM
TK-10 renal
  GI50: 3.5 µM
  TGI: 14.9 µM
HCT-116 colon
  GI50: 1.92 µM
  TGI: 3.97 µM
A549 NSCLC
  GI50: 2.98 µM
  TGI: 11 µM
SR leukemia
  GI50: 3.69 µM
  TGI: > 100 µM
ACHN renal
  GI50: 2.94 µM
  TGI: 11.5 µM
MCF7 breast
  GI50: 2.92 µM
  TGI: 9.62 µM
SF-295 CNS
  GI50: 1.72 µM
  TGI: 3.56 µM

## CCN(CC)CCOc1ccc(/C=C2\CC3C4CC=C5C[C@@H](N6CCCC6)CC[C@]5(C)C4CC[C@]3(C)[C@H]2O)cc1OC (stereo not given in full)
SF-268 CNS
  GI50: 11.8 µM
  TGI: > 76.6 µM
M14 melanoma
  GI50: 1.92 µM
  TGI: 4.23 µM
SN12C renal
  GI50: 20.6 µM
  TGI: > 63.5 µM
TK-10 renal
  GI50: 9.64 µM
  TGI: 37.2 µM
HCT-116 colon
  GI50: 1.38 µM
  TGI: 11 µM
A549 NSCLC
  GI50: 7.91 µM
  TGI: > 100 µM
SR leukemia
  GI50: 0.224 µM
  TGI: 0.648 µM
ACHN renal
  GI50: 5.94 µM
  TGI: 26.2 µM
MCF7 breast
  GI50: 4.45 µM
  TGI: > 59 µM
SF-295 CNS
  GI50: 3.86 µM
  TGI: 13.5 µM

## CC1=Cc2cc3[n-]c(cc4nc(cc5[n-]c(cc1n2)cc5C)C(C)=C4CCC(=O)O)c(CCC(=O)O)c3C.[Pd+2]
SF-268 CNS
  GI50: 20.6 µM
  TGI: 47.7 µM
M14 melanoma
  GI50: 12.7 µM
  TGI: 31.1 µM
SN12C renal
  GI50: 9.17 µM
  TGI: 17.9 µM
TK-10 renal
  GI50: 24.9 µM
  TGI: 52.9 µM
HCT-116 colon
  GI50: 24.1 µM
  TGI: 41.4 µM
A549 NSCLC
  GI50: 32.1 µM
  TGI: 54.7 µM
SR leukemia
  GI50: 2.82 µM
  TGI: 9.75 µM
ACHN renal
  GI50: 6.31 µM
  TGI: 16.6 µM
MCF7 breast
  GI50: > 100 µM
  TGI: > 100 µM
SF-295 CNS
  GI50: 17.5 µM
  TGI: 36.3 µM

## CCOC(CN=c1nc(N(C)C)ss1)OCC
SF-268 CNS
  TGI: 59.8 µM
M14 melanoma
  TGI: 35.5 µM
SN12C renal
  TGI: 36.8 µM
TK-10 renal
  TGI: 73.5 µM
HCT-116 colon
  TGI: 31.2 µM
A549 NSCLC
  TGI: > 100 µM
SR leukemia
  TGI: 12.2 µM
ACHN renal
  TGI: 58.7 µM
MCF7 breast
  TGI: > 65.3 µM
SF-295 CNS
  TGI: 43.8 µM

## Cc1ccc2c(N)c(C(=O)N[C@H]3CCc4cc(N5CC6CCC(C5)N6)ccc4C3)sc2n1
SF-268 CNS
  GI50: 0.42 µM
  TGI: 2.51 µM
M14 melanoma
  GI50: 0.307 µM
  TGI: 1.82 µM
SN12C renal
  GI50: 0.263 µM
  TGI: 1.8 µM
TK-10 renal
  GI50: 0.434 µM
  TGI: 3.26 µM
HCT-116 colon
  GI50: 0.251 µM
  TGI: 3.44 µM
A549 NSCLC
  GI50: 0.207 µM
  TGI: 2.03 µM
SR leukemia
  GI50: 0.202 µM
  TGI: 4.36 µM
ACHN renal
  GI50: 0.158 µM
  TGI: 2.01 µM
MCF7 breast
  GI50: 0.283 µM
  TGI: 2.43 µM
SF-295 CNS
  GI50: 0.509 µM
  TGI: 2.59 µM

## CC1(C)N=C(N)N=C(N)N1c1cc(Cl)ccc1Cl
SF-268 CNS
  GI50: > 100 µM
  TGI: > 100 µM
M14 melanoma
  GI50: > 100 µM
  TGI: > 100 µM
SN12C renal
  GI50: > 100 µM
  TGI: > 100 µM
TK-10 renal
  GI50: > 100 µM
  TGI: > 100 µM
HCT-116 colon
  GI50: 93.8 µM
  TGI: > 100 µM
A549 NSCLC
  GI50: > 100 µM
  TGI: > 100 µM
SR leukemia
  GI50: > 100 µM
  TGI: > 100 µM
ACHN renal
  GI50: > 100 µM
  TGI: > 100 µM
MCF7 breast
  GI50: > 100 µM
  TGI: > 100 µM
SF-295 CNS
  GI50: > 100 µM
  TGI: > 100 µM
